# Laboratory results: ChEMBL document CHEMBL3988442, “University of Dundee, Small-Polar-MMV Screening Library” (2021)
# Several values for one entry are separate records, joined by “and”; a condition that tells them apart may be missing. Equal values may be shown once.
# What was measured:
# Format in all cases: functional
# [1] = target: T1, Shiga toxin 2 (Escherichia coli O157:H7, UniProt P09385+P09386); test: E. coli 0.157:H7 Shiga Toxin SOP - stx2 screening assay
# T1 sequence (P09385 whole entry): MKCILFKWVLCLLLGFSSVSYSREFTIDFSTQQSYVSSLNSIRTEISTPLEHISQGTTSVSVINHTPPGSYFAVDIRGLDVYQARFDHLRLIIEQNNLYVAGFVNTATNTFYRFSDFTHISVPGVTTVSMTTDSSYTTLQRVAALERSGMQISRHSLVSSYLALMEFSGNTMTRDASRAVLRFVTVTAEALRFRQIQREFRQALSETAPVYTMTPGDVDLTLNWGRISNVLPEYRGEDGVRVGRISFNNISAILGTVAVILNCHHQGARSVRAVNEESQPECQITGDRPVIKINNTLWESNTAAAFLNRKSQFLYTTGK
# T1 sequence (P09386 whole entry): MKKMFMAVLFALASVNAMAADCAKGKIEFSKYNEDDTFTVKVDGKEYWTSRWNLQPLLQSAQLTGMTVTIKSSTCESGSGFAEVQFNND
# [2] = target: T2, Histidine--tRNA ligase (Trypanosoma cruzi (strain CL Brener), UniProt Q4DA54); test: Trypanosoma cruzi histidyl tRNA synthetase (Tc-HisRS)
# T2 sequence (Q4DA54 whole entry): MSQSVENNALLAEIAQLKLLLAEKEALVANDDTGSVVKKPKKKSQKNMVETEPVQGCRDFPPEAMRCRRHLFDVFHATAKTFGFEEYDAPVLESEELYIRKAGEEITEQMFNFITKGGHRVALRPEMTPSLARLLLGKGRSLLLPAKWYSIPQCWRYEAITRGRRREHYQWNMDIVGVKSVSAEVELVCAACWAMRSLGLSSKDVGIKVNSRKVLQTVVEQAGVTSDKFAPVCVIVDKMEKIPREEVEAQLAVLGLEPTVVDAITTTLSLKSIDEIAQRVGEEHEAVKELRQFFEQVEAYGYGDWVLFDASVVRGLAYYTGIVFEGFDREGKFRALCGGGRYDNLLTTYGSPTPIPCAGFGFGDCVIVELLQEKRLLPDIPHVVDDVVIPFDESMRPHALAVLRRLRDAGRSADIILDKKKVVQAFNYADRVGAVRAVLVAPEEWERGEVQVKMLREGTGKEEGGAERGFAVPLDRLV
# [3] = target: T3, Ubiquitin-activating enzyme e1, putative (Leishmania donovani (strain BPK282A1), UniProt E9BSI1); test: Leishmania donovani Ubiquitin Activating Enzyme (LdE1)
# T3 sequence (E9BSI1 whole entry): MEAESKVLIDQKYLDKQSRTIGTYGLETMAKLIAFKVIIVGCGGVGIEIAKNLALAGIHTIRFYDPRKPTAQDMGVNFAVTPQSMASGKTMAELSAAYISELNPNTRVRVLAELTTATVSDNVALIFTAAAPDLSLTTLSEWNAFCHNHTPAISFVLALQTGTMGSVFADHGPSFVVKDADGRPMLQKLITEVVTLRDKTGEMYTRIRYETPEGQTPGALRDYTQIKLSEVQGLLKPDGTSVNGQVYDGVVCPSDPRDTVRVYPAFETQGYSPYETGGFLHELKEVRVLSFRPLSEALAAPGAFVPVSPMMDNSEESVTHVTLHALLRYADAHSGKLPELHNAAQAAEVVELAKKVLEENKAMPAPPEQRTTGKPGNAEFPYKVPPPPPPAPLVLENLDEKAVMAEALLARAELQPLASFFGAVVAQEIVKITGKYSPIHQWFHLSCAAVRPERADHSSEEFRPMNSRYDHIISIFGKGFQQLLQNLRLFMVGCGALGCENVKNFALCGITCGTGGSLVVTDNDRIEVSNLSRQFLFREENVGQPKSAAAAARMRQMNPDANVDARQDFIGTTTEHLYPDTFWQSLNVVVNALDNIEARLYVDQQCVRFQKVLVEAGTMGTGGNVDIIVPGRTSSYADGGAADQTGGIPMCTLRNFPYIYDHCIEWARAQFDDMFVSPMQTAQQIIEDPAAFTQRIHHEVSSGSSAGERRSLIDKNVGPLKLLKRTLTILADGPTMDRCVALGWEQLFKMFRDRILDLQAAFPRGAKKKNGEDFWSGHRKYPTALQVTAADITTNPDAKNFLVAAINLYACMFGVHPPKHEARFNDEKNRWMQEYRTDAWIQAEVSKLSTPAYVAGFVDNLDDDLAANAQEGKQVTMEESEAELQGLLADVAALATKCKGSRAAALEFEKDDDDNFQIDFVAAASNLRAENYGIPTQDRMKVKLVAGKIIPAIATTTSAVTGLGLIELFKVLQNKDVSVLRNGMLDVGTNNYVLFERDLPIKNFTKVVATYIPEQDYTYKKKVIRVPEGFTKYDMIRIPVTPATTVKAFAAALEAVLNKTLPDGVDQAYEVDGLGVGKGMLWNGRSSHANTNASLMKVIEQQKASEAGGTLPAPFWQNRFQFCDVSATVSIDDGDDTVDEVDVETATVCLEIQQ
# [4] = target: Lysine--tRNA ligase (Plasmodium falciparum (isolate 3D7), UniProt Q8IDJ8); test: Pf-KRS-1 (Lysyl-RNA Synthetase-1, KRS-1, cytosolic KRS) from Plasmodium falciparum. Inhibitor assay, 384 well plate, luminescence read.
# [5] = target: T4, Histidine--tRNA ligase (Leishmania infantum, UniProt A4I591); test: Leishmania infantum Histidine tRNA synthetase (LdHisRS)
# T4 sequence (A4I591 whole entry): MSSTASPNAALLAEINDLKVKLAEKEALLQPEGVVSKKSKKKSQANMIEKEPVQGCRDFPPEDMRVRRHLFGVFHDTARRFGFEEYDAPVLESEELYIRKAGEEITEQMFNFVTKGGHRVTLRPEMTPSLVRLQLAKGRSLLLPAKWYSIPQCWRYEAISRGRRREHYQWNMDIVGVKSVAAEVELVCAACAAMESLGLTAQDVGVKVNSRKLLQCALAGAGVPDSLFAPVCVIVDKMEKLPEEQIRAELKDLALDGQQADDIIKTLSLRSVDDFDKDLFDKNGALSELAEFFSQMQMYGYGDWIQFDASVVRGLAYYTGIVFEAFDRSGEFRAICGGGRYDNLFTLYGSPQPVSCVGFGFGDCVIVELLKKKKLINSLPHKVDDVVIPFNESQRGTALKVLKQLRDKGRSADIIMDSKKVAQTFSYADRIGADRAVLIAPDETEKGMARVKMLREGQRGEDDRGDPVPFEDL
# [6] = target: Protein translocase subunit SecA (Escherichia coli (strain K12), UniProt P10408); test: Assay to Identify E. coli SecA ATPase Inhibitors
# [7] = target: ClpP1P2 (Mycobacterium tuberculosis (strain ATCC 25618 / H37Rv), UniProt P9WPC3+P9WPC5); test: in vitro assay to detect presence of AMC directly proportional to the activity of ClpP1P2. GHDDI collaboration.
# ClpP1P2, sequence (P9WPC5 whole entry): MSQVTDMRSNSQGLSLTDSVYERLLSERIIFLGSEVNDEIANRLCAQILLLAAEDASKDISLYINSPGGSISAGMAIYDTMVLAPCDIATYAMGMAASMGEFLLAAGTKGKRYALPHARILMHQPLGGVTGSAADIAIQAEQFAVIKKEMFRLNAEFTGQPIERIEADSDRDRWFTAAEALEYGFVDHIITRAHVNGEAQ
# ClpP1P2, sequence (P9WPC3 whole entry): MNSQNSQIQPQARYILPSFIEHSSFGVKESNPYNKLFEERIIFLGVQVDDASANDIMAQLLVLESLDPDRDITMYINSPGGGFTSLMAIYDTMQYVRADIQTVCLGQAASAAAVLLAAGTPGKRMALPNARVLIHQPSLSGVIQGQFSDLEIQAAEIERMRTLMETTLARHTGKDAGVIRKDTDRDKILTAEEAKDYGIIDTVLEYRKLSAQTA
# Protein translocase subunit SecA, sequence (P10408 whole entry): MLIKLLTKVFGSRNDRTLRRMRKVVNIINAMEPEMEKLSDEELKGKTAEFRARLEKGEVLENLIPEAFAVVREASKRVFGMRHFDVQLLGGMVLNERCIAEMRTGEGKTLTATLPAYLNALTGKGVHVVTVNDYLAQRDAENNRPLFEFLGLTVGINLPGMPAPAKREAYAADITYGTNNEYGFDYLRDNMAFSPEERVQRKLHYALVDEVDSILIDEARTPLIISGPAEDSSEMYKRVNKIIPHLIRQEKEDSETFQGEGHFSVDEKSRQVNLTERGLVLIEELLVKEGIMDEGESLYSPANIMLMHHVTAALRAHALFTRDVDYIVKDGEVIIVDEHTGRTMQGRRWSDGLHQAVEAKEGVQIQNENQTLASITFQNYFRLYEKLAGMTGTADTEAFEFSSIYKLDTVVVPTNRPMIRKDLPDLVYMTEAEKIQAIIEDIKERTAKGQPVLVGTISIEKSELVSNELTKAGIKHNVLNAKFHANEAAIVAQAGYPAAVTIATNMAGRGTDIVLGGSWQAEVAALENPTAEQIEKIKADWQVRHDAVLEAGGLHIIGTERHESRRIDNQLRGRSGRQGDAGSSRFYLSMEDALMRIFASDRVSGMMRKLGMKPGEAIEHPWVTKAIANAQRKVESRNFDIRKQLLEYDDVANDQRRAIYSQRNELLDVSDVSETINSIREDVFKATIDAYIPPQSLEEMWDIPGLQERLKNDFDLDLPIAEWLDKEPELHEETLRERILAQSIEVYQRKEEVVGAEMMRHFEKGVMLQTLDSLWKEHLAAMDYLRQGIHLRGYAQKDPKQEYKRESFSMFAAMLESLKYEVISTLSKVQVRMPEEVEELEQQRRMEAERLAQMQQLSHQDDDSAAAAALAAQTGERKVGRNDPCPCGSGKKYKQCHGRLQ
# Lysine--tRNA ligase, sequence (Q8IDJ8 whole entry): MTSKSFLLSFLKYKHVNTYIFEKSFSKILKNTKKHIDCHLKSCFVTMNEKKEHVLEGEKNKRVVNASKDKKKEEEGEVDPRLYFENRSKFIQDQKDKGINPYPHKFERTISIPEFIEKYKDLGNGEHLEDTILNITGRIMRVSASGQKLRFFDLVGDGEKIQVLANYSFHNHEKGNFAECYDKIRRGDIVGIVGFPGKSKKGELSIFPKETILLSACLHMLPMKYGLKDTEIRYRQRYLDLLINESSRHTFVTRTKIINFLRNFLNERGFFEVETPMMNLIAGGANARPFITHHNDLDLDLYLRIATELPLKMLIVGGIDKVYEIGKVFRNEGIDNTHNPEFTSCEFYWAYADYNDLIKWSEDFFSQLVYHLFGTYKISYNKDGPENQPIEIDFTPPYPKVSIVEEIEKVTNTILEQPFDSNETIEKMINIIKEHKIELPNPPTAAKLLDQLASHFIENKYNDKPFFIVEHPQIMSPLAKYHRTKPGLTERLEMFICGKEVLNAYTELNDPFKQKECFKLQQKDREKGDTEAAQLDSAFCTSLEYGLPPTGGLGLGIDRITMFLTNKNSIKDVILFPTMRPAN
SMILES,IC50 [1],IC50 [2],IC50 [3],IC50 [4],IC50 [5],IC50 [6],IC50 [7]
Cc1cc(-c2cnn(CCNC(=O)C3CC3)c2C2CC2)on1,> 100 µM,–,–,–,–,–,–
O=C1CN(Cc2ccc(-c3ccccc3C(=O)O)cc2)CCN1,> 100 µM,–,–,–,–,–,–
Nc1cc(CCC2CN(Cc3ccc(C(=O)O)cc3)CCO2)ccn1 (stereo unspecified),> 100 µM,–,–,–,–,–,–
O=C(Cc1cccc(Cl)c1)N[C@@H]1CCNC[C@H]1O,> 100 µM and 21.3 µM,–,–,–,–,–,–
COc1cccc(C2CC(=O)Nc3nc(N4CCCCC4)sc32)c1OC (stereo unspecified),–,2.42 µM and 4.13 µM,81.5 µM and 75 µM,> 50.1 µM,423 nM and 346 nM,22.7 µM and 22.6 µM,> 100 µM
COCCN1CCN(CCS(=O)(=O)C(F)(F)F)CC1C (stereo unspecified),32.8 µM and 33 µM,–,–,–,–,–,–
COc1ccc(OC)c(C2CC(=O)Nc3nc(N4CCOCC4)sc32)c1 (stereo unspecified),–,3.5 µM and 4.23 µM,> 100 µM,> 50.1 µM,373 nM and 317 nM,> 100 µM and 34.1 µM,> 100 µM
COc1ccc(C)cc1CN(C)Cc1nc2c(cnn2C)c(=O)[nH]1,> 100 µM,–,–,–,–,–,–
Cn1cc(C(=O)N2CCC(Cc3nccs3)CC2)cn1,> 100 µM,–,–,–,–,–,–
COc1cccc(C2CC(=O)Nc3nc(N4CCOCC4)sc32)c1OC (stereo unspecified),–,5.22 µM and 4.5 µM,85.8 µM and 91 µM,> 50.1 µM,1200 nM and 876 nM,10.6 µM and 8.05 µM,–
O=S(=O)(c1ccccc1)N1CCCCC1c1cc[nH]n1 (stereo unspecified),> 100 µM,–,–,–,–,–,–
COc1ccccc1CC(=O)N1CC[C@@]2(CCCO2)[C@@H](OC)C1,> 100 µM,–,–,–,–,–,–
CNc1nc2c(s1)C(c1cccc(Cl)c1Cl)CC(=O)N2 (stereo unspecified),–,10.4 µM and 11.2 µM,–,> 50.1 µM,–,37.8 µM and > 100 µM,–
CNc1nc2c(s1)C(c1ccc(Cl)cc1Cl)CC(=O)N2 (stereo unspecified),–,10.3 µM and 10.6 µM,–,> 50.1 µM,4560 nM and 3650 nM,> 100 µM,–
CCOC(=O)c1sc2ccsc2c1CN,> 100 µM,–,–,–,–,–,–
COc1ccccc1C1CC(=O)Nc2nc(N3CCCCC3)sc21 (stereo unspecified),–,2.4 µM and 1.34 µM,54.8 µM and 48.5 µM,> 50.1 µM,231 nM,22.1 µM and 29.4 µM,> 100 µM
Cc1nc(C(=O)N2CCC(Cc3cnc4[nH]ccc4c3)C2)co1 (stereo unspecified),> 100 µM,–,–,–,–,–,–

SMILES,IC50 [1],IC50 [2],IC50 [3],IC50 [4],IC50 [5],IC50 [6],IC50 [7]
CC(C)(C)NC(=O)NC(=O)CNC(C)(C)c1ccc2c(c1)OCCO2,> 100 µM,–,–,–,–,–,–
COc1c(CNC(c2ccc(F)cc2)C(C)(C)C)c(C)nn1C (stereo unspecified),> 100 µM,–,–,–,–,–,–
Cc1nccn1-c1cccc(C2CCCN2S(=O)(=O)c2cn(C)cn2)n1 (stereo unspecified),> 100 µM,–,–,–,–,–,–
CNc1nc2c(s1)C(c1ccc(F)cc1Cl)CC(=O)N2 (stereo unspecified),–,22.8 µM and 15.7 µM,–,> 50.1 µM,–,> 100 µM,–
O=C1CC(c2ccccc2C(F)(F)F)c2sc(N3CCOCC3)nc2N1 (stereo unspecified),–,10.8 µM and 16.3 µM,> 100 µM,> 50.1 µM,–,> 100 µM,> 100 µM
CC(C)c1cc(C(F)(F)F)n2nc(CCC(=O)O)nc2n1,> 100 µM,–,–,–,–,–,–
CNc1nc2c(s1)C(c1cccc(F)c1F)CC(=O)N2 (stereo unspecified),–,22.5 µM and 14.6 µM,–,> 50.1 µM,–,93.5 µM and 33.1 µM,> 100 µM
CNc1nc2c(s1)C(c1ccccc1Cl)CC(=O)N2 (stereo unspecified),–,6.72 µM and 7.27 µM,–,> 50.1 µM,2190 nM and 2570 nM and 2790 nM and 2640 nM,> 100 µM,–
COc1ccc(C2CC(=O)Nc3nc(N4CCOCC4)sc32)c(OC)c1 (stereo unspecified),–,2.24 µM and 2.8 µM,> 100 µM,> 50.1 µM,231 nM and 259 nM and 280 nM,> 100 µM and 33.8 µM,> 100 µM
CC(C)Oc1ccccc1C1CC(=O)Nc2nc(N3CCOCC3)sc21 (stereo unspecified),–,3.93 µM and 5.46 µM,86.4 µM and 89.7 µM,> 50.1 µM,–,41.6 µM and 34.6 µM,> 100 µM
COc1ccc(C2CC(=O)Nc3nc(N4CCOCC4)sc32)cc1 (stereo unspecified),–,10.8 µM and 8.7 µM,> 100 µM,> 50.1 µM,1790 nM and 2450 nM and 2490 nM and 2070 nM,37.3 µM and > 100 µM,> 100 µM
Nc1nc2c(s1)C(c1c(F)cccc1Cl)CC(=O)N2 (stereo unspecified),–,9.65 µM and 7.68 µM,–,> 50.1 µM,3220 nM and 4420 nM,> 100 µM,–
O=C1CC(c2ccccc2Br)c2sc(N3CCOCC3)nc2N1 (stereo unspecified),–,6.96 µM and 6.21 µM,> 100 µM and 92.2 µM,> 50.1 µM,1130 nM and 1440 nM,> 100 µM,–
Cc1ccc2c(ccn2CCC(=O)O)c1,–,–,–,–,–,> 100 µM,–
CNc1nc2c(s1)C(c1c(Cl)cccc1Cl)CC(=O)N2 (stereo unspecified),–,21.3 µM and 23 µM,–,> 50.1 µM,20800 nM and 17500 nM,89.4 µM and 43.2 µM,–
CNc1nc2c(s1)C(c1ccccc1F)CC(=O)N2 (stereo unspecified),–,5.69 µM and 4.89 µM,–,> 50.1 µM,2320 nM and 2220 nM and 2270 nM and 2530 nM,> 100 µM and 93.8 µM,> 100 µM
CNc1nc2c(s1)C(c1cc(Cl)ccc1F)CC(=O)N2 (stereo unspecified),–,19.4 µM and 20.6 µM,–,> 50.1 µM,–,> 100 µM,> 100 µM
